This experiment addresses human PAD4 (hPAD4) (Homo sapiens, UniProt Q9UM07). Kind of experiment: RFMS human PAD4 functional assay (rapid-fire mass spectrum). The format is biochemical. The settings on record: 5 nM hPAD4 enzyme, 250 μM BAEE, 50 μM Calcium; 30 min preincubation, 90 min reaction at 37° C. A digest of the protocol: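 PAD4 (10 nM) preincubated 30 min with compound (top final 50 μM), then BAEE substrate added in pH 7.5 HEPES buffer with DTT, 50 μM calcium, TPEN; 90 min at 37° C. After TCA quench, citrulline derivatized with phenyl glyoxal (4 mM final, 30 min, 37° C) and quantified by RapidFire MS against internal standard.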

For 16 compounds, IC50 results are on record in patent US12692254B2, “Benzimidazole inhibitors of PAD enzymes” (BRISTOL-MYERS SQUIBB COMPANY, priority 2018, dated 2026).

Chain of human PAD4 (hPAD4) (Q9UM07 whole entry): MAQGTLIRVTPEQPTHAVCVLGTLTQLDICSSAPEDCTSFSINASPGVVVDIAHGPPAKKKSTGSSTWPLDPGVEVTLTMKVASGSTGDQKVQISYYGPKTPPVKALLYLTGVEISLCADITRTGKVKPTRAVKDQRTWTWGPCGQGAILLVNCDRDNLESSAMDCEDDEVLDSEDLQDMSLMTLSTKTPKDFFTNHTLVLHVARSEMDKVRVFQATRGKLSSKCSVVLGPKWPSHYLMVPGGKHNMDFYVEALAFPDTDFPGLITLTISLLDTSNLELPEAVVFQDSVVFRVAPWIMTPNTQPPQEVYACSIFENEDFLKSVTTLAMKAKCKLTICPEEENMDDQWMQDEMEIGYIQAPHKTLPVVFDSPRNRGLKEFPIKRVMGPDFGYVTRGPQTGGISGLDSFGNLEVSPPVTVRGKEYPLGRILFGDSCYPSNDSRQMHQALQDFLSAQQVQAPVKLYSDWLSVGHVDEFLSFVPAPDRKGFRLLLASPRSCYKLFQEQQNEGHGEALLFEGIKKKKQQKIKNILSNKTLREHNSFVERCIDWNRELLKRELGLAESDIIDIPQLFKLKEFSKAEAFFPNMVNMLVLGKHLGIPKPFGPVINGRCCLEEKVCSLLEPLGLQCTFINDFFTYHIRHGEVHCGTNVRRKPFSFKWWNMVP

Broadly, the IC50 is the midpoint of a concentration-inhibition curve. As for `COc1cc(C(=O)N2CC3CCC2[C@@H]3N)cc2nc(-c3cc4cccnc4n3CC3CC3)n([C@H]3C[C@@H](NC(C)=O)C3)c12` (stereo partly drawn) [Example 304, N-[(1s,3s)-3-{5-[(1R,4R,7R)-7-ammo-2-azabicyclo[2.2.1]heptane-2-carbonyl]-2-[1-(cyclopropylmethyl)-1H-pyrrolo[2,3-b]pyridin-2-yl]-7-methoxy-1H-1,3-benzodiazol-1-yl}cyclobutyl]acetamide], the IC50 amounted to 2880 nM. Regarding `COc1cc(C(=O)N2CC3CCC2[C@@H]3N)cc2nc(-c3cc4ccccc4n3CC3CC3)n(CC3CN(C(=O)c4ccc(C#N)nc4)C3)c12` (stereo partly drawn) [Example 415, 5-[3-({5-[(7R)-7-amino-2-azabicyclo[2.2.1]heptane-2-carbonyl]-2-{1-(cyclopropylmethyl)-1H-indol-2-yl]-7-methoxy-1H-1,3-benzodiazol-1-yl}methyl)azetidine-1-carbonyl]pyridine-2-carbonitrile], the IC50 is 41 nM. In the case of `COc1cc(C(=O)N2C[C@H](N)C[C@@H](F)C2)cc2nc(-c3cc4cccnc4n3CC3CC3)n(Cc3cnn(-c4cccnc4O)c3)c12` [Example 382, 3-[4-({5-[(3R,5R)-3-amino-5-fluoropiperidine-1-carbonyl]-2-[1-(cyclopropylmethyl)-1H-pyrrolo[2,3-b]pyridin-2-yl]-7-methoxy-1H-1,3-benzodiazol-1-yl}methyl)-1H-pyrazol-1-yl]pyridin-2-ol], the IC50 is 41 nM. The value for `COc1cc(C(=O)N2C[C@H]3CC[C@@H]2[C@@H]3N)cc2nc(-c3cc4ccccc4n3CC3CC3)n(CC3CN(C(=O)c4ccc(C(=O)O)cc4)C3)c12` [Example 151, 4-[3-({5-[(1R,4R,7R)-7-amino-2-azabicyclo[2.2.1]heptane-2-carbonyl]-2-[1-(cyclopropylmethyl)-1H-indol-2-yl]-7-methoxy-1H-1,3-benzodiazol-1-yl}methyl)azetidine-1-carbonyl]benzoic acid] was 20 nM; that for `COc1cc(C(=O)N2C[C@H](N)C[C@@H](F)C2)cc2nc(-c3cc4cccnc4n3CC3CC3)n(Cc3ccn(C)n3)c12` [Example 516, (3R,5R)-1-{2-[1-(cyclopropylmethyl)-1H-pyrrolo[2,3-b]pyridin-2-yl]-7-methoxy-1-[(1-methyl-1H-pyrazol-3-yl)methyl]-1H-1,3-benzodiazole-5-carbonyl}-5-fluoropiperidin-3-amine] was 574 nM. The value for `COc1cc(C(=O)N2CC3CCC2[C@@H]3N)cc2nc(-c3cc4cccnc4n3CC3CC3)n([C@H]3C[C@@H](NS(C)(=O)=O)C3)c12` (stereo partly drawn) [Example 297, N-[(1s,3s)-3-{5-[(1R,4R,7R)-7-amino-2-azabicyclo[2.2.1]heptane-2-carbonyl]-2-[1-(cyclopropylmethyl)-1H-pyrrolo[2,3-b]pyridin-2-yl]-7-methoxy-1H-1,3-benzodiazol-1-yl}cyclobutyl]methanesulfonamide] was 2100 nM; that for `COc1cc(C(=O)N2C[C@H]3CC[C@@H]2[C@@H]3N)cc2nc(-c3cc4cccnc4n3CC3CC3)n(CC3CN(c4cncnc4)C3)c12` [Example 27, (1R,4R,7R)-2-{2-[1-(cyclopropylmethyl)-1H-pyrrolo[2,3-b]pyridin-2-yl]-7-methoxy-1-{[1-(pyrimidin-5-yl)azetidin-3-yl]methyl}-1H-1,3-benzodiazole-5-carbonyl}-2-azabicyclo[2.2.1]heptan-7-amine] was 72 nM; that for `COc1cc(C(=O)N2C[C@H]3CC[C@@H]2[C@@H]3N)cc2nc(-c3cc4ccccc4n3CC3CC3)n(CC3CN(c4cncc(C#N)n4)C3)c12` [Example 65, 6-[3-({5-[(1R,4R,7R)-7-amino-2-azabicyclo[2.2.1]heptane-2-carbonyl]-2-[1-(cyclopropylmethyl)-1H-indol-2-yl]-7-methoxy-1H-1,3-benzodiazol-1-yl}methyl)azetidin-1-yl]pyrazine-2-carbonitrile] was 28 nM. With `COc1cc(C(=O)N2C[C@H]3CC[C@@H]2[C@@H]3N)cc2nc(-c3cc4cccnc4n3CC3CC3)n(C[C@H]3CCN(c4ccnc(C)n4)C3)c12` [Example 208, ((1R,4R,7R)-7-amino-2-azabicyclo[2.2.1]heptan-2-yl)(2-(1-(cyclopropylmethyl)-1H-pyrrolo[2,3-b]pyridin-2-yl)-7-methoxy-1-(((S)-1-(2-methylpyrimidin-4-yl)pyrrolidin-3-yl)methyl)-1H-benzo[d]imidazol-5-yl)methanone], the IC50 was determined as 25 nM. `CCC#CC(=O)N1CC(Cn2c(-c3cc4cccnc4n3CC3CC3)nc3cc(C(=O)N4C[C@H]5CC[C@@H]4[C@@H]5N)cc(OC)c32)C1` [Example 108, 1-[3-({5-[(1R,4R,7R)-7-amino-2-azabicyclo[2.2.1]heptane-2-carbonyl]-2-[1-(cyclopropylmethyl)-1H-pyrrolo[2,3-b]pyridin-2-yl]-7-methoxy-1H-1,3-benzodiazol-1-yl}methyl)azetidin-1-yl]pent-2-yn-1-one]: the IC50 was 40 nM. Turning to `COc1cc(C(=O)N2C[C@H]3CC[C@@H]2[C@@H]3N)cc2nc(-c3cc4cccnc4n3CC3CC3)n(CC3CN(c4nc(O)ncc4C#N)C3)c12` [Example 79, 4-[3-({5-[(1R,4R,7R)-7-amino-2-azabicyclo[2.2.1]heptane-2-carbonyl]-2-[1-(cyclopropylmethyl)-1H-pyrrolo[2,3-b]pyridin-2-yl]-7-methoxy-1H-1,3-benzodiazol-1-yl}methyl)azetidin-1-yl]-2-hydroxypyrimidine-5-carbonitrile], the IC50 is 400 nM.

On to `COc1cc(C(=O)N2C[C@H]3CC[C@@H]2[C@@H]3N)cc2nc(-c3cc4cccnc4n3CC3CC3)n(CC3CN(c4cnc(C#N)nc4)C3)c12` [Example 17, 5-[3-({5-[(1R,4R,7R)-7-amino-2-azabicyclo[2.2.1]heptane-2-carbonyl]-2-[1-(cyclopropylmethyl)-1H-pyrrolo[2,3-b]pyridin-2-yl]-7-methoxy-1H-1,3-benzodiazol-1-yl}methyl)azetidin-1-yl]pyrimidine-2-carbonitrile], for which the IC50 amounted to 50 nM. Regarding `COc1cc(C(=O)N2CC3CCC2[C@@H]3N)cc2nc(-c3cc4ccccc4n3CC3CC3)n(CC3CN(C(=O)c4cnccn4)C3)c12` (stereo partly drawn) [Example 436, (7R)-2-{2-[1-(cyclopropylmethyl)-1H-indol-2-yl]-7-methoxy-1-{[1-(pyrazine-2-carbonyl)azetidin-3-yl]methyl}-1H-1,3-benzodiazole-5-carbonyl}-2-azabicyclo[2.2.1]heptan-7-amine], the IC50 was 34 nM. The result for `COc1cc(C(=O)N2CC3CCC2[C@@H]3N)cc2nc(-c3cc4cccnc4n3CC3CC3)n(CC3CN(C(=O)c4ccccc4Cl)C3)c12` (stereo partly drawn) [Example 428, (7R)-2-(1-{[1-(2-chlorobenzoyl)azetidin-3-yl]methyl}-2-[1-(cyclopropylmethyl)-1H-pyrrolo[2,3-b]pyridin-2-yl]-7-methoxy-1H-1,3-benzodiazole-5-carbonyl)-2-azabicyclo[2.2.1]heptan-7-amine] reads 28 nM.

As to `COc1cc(C(=O)N2C[C@H]3CC[C@@H]2[C@@H]3N)cc2nc(-c3cc4ccccc4n3CC3CC3)n(Cc3cnn(-c4ccccc4)c3)c12` [Example 253, (1R,4R,7R)-2-{2-[1-(cyclopropylmethyl)-1H-indol-2-yl]-7-methoxy-1-[(1-phenyl-1H-pyrazol-4-yl)methyl]-1H-1,3-benzodiazole-5-carbonyl}-2-azabicyclo[2.2.1]heptan-7-amine], the IC50 was determined as 27 nM. The result for `COc1cc(C(=O)N2CC3CCC2[C@@H]3N)cc2nc(-c3cc4cccnc4n3CC3CC3)n(CC3CCN(c4ccnc(C)n4)CC3)c12` (stereo partly shown) [Example 219] reads 67 nM.
